Test results: patent publication US11292796B2 (SIGNAL PHARMACEUTICALS, LLC, priority 2008, dated 2022)

Target: T1, mTOR (Homo sapiens, UniProt P42345)
T1 construct: purchased Invitrogen PR8683A
Test: mTOR HTR-FRET assay
Assay type: biochemical
Conditions: read-out: Act. Level (IC50 in mTor HTR-FRET assay)
Protocol: The following is an example of an assay that can be used to determine the mTOR inhibitory activity of a test compound. Heteroaryl Compounds were dissolved in DMSO and prepared as 10 mM stocks and diluted appropriately for the experiments. Reagents were prepared as follows:
“Simple TOR buffer” (used to dilute high glycerol TOR fraction): 10 mM Tris pH 7.4, 100 mM NaCl, 0.1% Tween-20, 1 mM DTT. Invitrogen mTOR (cat #PR8683A) was diluted in this buffer to an assay concentration of 0.200 μg/mL.
To 20 μL of the Simple mTor buffer is added 0.5 μL of test compound in DMSO. To initiate the reaction 5 μL of ATP/Substrate solution was added to 20 μL of the Simple TOR buffer solution (control) and to the compound solution prepared above.

T1 sequence (P42345 1360-2549 limits assumed): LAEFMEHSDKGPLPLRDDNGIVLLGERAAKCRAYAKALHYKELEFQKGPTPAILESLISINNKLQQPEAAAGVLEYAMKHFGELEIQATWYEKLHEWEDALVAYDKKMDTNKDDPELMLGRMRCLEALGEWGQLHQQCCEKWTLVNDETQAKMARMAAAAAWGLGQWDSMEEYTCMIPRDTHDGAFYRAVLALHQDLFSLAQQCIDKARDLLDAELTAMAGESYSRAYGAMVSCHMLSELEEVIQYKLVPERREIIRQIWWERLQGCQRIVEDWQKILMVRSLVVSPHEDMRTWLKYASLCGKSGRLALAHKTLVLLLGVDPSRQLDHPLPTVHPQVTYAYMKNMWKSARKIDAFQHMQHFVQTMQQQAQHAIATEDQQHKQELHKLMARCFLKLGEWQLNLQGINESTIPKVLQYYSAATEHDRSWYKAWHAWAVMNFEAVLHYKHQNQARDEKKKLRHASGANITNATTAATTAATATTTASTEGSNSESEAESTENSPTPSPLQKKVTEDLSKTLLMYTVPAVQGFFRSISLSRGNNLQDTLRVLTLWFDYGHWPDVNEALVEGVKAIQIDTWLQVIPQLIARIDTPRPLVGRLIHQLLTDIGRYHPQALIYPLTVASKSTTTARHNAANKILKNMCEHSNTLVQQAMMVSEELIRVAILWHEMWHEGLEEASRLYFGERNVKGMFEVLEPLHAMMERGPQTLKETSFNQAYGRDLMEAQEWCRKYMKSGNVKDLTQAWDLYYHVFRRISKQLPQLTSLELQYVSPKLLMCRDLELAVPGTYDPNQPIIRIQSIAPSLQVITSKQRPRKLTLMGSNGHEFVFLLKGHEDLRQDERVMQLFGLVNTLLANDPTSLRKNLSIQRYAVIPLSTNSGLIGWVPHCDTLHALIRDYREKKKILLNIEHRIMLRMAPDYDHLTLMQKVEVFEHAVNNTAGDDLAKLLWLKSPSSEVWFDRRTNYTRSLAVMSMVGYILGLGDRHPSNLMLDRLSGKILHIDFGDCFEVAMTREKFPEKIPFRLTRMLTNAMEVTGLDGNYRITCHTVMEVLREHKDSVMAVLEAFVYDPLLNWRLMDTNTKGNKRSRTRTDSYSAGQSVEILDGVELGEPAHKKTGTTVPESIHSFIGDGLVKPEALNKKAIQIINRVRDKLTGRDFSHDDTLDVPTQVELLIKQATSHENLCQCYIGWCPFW

Row | SMILES | IC50 [nM]
1 | O=C1CN(Cc2cccc(C(F)(F)F)c2)c2nc(-c3ccc(-c4nnc[nH]4)cc3)cnc2N1 [Example 145, 6-(4-(4H-1,2,4-triazol-3-yl)phenyl)-4-(3-(trifluoromethyl)benzyl)-3,4-dihydropyrazino[2,3-b]pyrazin-2(1H)-one] | 0.005 to 250
2 | COc1ccc(-c2cnc3c(n2)N(CCC2CCOCC2)C(=O)CN3)cn1 [Example 191, 7-(6-methoxypyridin-3-yl)-1-(2-(tetrahydro-2H-pyran-4-yl)ethyl)-3,4-dihydropyrazino[2,3-b]pyrazin-2(1H)-one] | 500 to 1000
3 | CO[C@H]1C[C@@H]2C(=O)Nc3ncc(-c4ccc(-c5nnc[nH]5)cc4C)nc3N2C1 [Example 112, 8-(4-(4H-1,2,4-triazol-3-yl)-2-methylphenyl)(2S,3aR)-2-methoxy-5,10,3a-trihydropyrazino[2,3-b]pyrrolidino[1,2-e]pyrazin-4-one] | 0.005 to 250
4 | C[C@@H](O)c1ccc(-c2cnc3c(n2)N(CCC2CCOCC2)C(=O)CN3)cn1 [Example 254, (R)-7-(6-(1-hydroxyethyl)pyridin-3-yl)-1-(2-(tetrahydro-2H-pyran-4-yl)ethyl)-3,4-dihydropyrazino[2,3-b]pyrazin-2(1H)-one] | 0.005 to 250
5 | CC(C)(O)c1ccc(-c2cnc3c(n2)N(CCN2CCOCC2)CC(=O)N3)cn1 [Example 123, 6-(6-(2-hydroxypropan-2-yl)pyridin-3-yl)-4-(2-morpholinoethyl)-3,4-dihydropyrazino[2,3-b]pyrazin-2(1H)-one] | 1000 to 10000
6 | O=C1CNc2ncc(-c3ccnc(O)c3)nc2N1CCC1CCOCC1 [Example 178, 7-(2-hydroxypyridin-4-yl)-1-(2-(tetrahydro-2H-pyran-4-yl)ethyl)-3,4-dihydropyrazino[2,3-b]pyrazin-2(1H)-one] | 500 to 1000
7 | Cc1cc(-c2cnc3c(n2)N(CCC2CCOCC2)CC(=O)N3)cc2[nH]cnc12 [Example 147, 6-(4-methyl-1H-benzo[d]imidazol-6-yl)-4-(2-(tetrahydro-2H-pyran-4-yl)ethyl)-3,4-dihydropyrazino[2,3-b]pyrazin-2(1H)-one] | 500 to 1000
8 | Cc1cc(-c2nnc[nH]2)ccc1-c1cnc2c(n1)N1CCCC1C(=O)N2 (stereo not drawn) [Example 140, 8-(4-(4H-1,2,4-triazol-3-yl)-2-methylphenyl)-5,10,3a-trihydropyrazino[2,3-b]pyrrolidino[1,2-e]pyrazin-4-one] | 0.005 to 250
9 | CO[C@H]1CC[C@H](CN2CC(=O)Nc3ncc(-c4ccc(C(C)(C)O)cc4)nc32)CC1 [Example 87, 6-(4-(2-hydroxypropan-2-yl)phenyl)-4-((trans-4-methoxycyclohexyl)methyl)-3,4-dihydropyrazino[2,3-b]pyrazin-2(1H)-one] | 250 to 500
10 | CO[C@H]1CC[C@H](N2C(=O)CNc3ncc(-c4ccc(C(C)(C)O)nc4)nc32)C1 [Example 210, 7-(6-(2-hydroxypropan-2-yl)pyridin-3-yl)-1-((1S,3S)-3-methoxycyclopentyl)-3,4-dihydropyrazino[2,3-b]pyrazin-2(1H)-one] | 0.005 to 250
11 | C[C@H](O)c1ccc(-c2cnc3c(n2)N(CCC2CCOCC2)CC(=O)N3)cn1 [Example 83, (S)-6-(6-(1-hydroxyethyl)pyridin-3-yl)-4-(2-(tetrahydro-2H-pyran-4-yl)ethyl)-3,4-dihydropyrazino[2,3-b]pyrazin-2(1H)-one] | 250 to 500
12 | Cc1cc(-c2nnc[nH]2)ncc1-c1cnc2c(n1)N(CC1CCOCC1)C(C)(C)C(=O)N2 [Example 50, 3,3-dimethyl-6-(4-methyl-6-(4H-1,2,4-triazol-3-yl)pyridin-3-yl)-4-((tetrahydro-2H-pyran-4-yl)methyl)-3,4-dihydropyrazino[2,3-b]pyrazin-2(1H)-one] | 0.005 to 250
13 | O=C1CNc2ncc(-c3ccc(-c4nc[nH]n4)nc3)nc2N1C[C@H]1CC[C@H](O)CC1 [Example 159, 7-(6-(1H-1,2,4-triazol-3-yl)pyridin-3-yl)-1-((trans-4-hydroxycyclohexyl)methyl)-3,4-dihydropyrazino[2,3-b]pyrazin-2(1H)-one] | 0.005 to 250
14 | O=C1CNc2ncc(-c3ccc(-c4nc[nH]n4)nc3)nc2N1C1CCOCC1 [Example 162, 7-(6-(1H-1,2,4-triazol-3-yl)pyridin-3-yl)-1-(tetrahydro-2H-pyran-4-yl)-3,4-dihydropyrazino[2,3-b]pyrazin-2(1H)-one] | 0.005 to 250
15 | Cc1nc(C(C)(C)O)ccc1-c1cnc2c(n1)N(CC1CCOCC1)CC(=O)N2 [Example 81, 6-(6-(2-hydroxypropan-2-yl)-2-methylpyridin-3-yl)-4-((tetrahydro-2H-pyran-4-yl)methyl)-3,4-dihydropyrazino[2,3-b]pyrazin-2(1H)-one] | 0.005 to 250
16 | O=C1CN(CCC2CCOCC2)c2nc(-c3cnc4nc[nH]c4c3)cnc2N1 [Example 36, 6-(1H-imidazo[4,5-b]pyridin-6-yl)-4-(2-(tetrahydro-2H-pyran-4-yl)ethyl)-3,4-dihydropyrazino[2,3-b]pyrazin-2(1H)-one] | 500 to 1000
17 | Cc1cc(-c2nc[nH]n2)c(F)cc1-c1cnc2c(n1)N(C1CCOCC1)CC(=O)N2 [Example 24, 6-(5-fluoro-2-methyl-4-(1H-1,2,4-triazol-3-yl)phenyl)-4-(tetrahydro-2H-pyran-4-yl)-3,4-dihydropyrazino[2,3-b]pyrazin-2(1H)-one] | 0.005 to 250
18 | COCCN1C(=O)CNc2ncc(-c3ccc(-c4nc[nH]n4)c(F)c3C)nc21 [Example 244, 7-(3-fluoro-2-methyl-4-(1H-1,2,4-triazol-3-yl)phenyl)-1-(2-methoxyethyl)-3,4-dihydropyrazino[2,3-b]pyrazin-2(1H)-one] | 0.005 to 250
19 | Cc1nc(-c2nnc[nH]2)ccc1-c1cnc2c(n1)N(CC1CCOCC1)CC(=O)N2 [Example 93, 6-(2-methyl-6-(4H-1,2,4-triazol-3-yl)pyridin-3-yl)-4-((tetrahydro-2H-pyran-4-yl)methyl)-3,4-dihydropyrazino[2,3-b]pyrazin-2(1H)-one] | 250 to 500
20 | CCN1C(=O)CNc2ncc(-c3cccc4[nH]ncc34)nc21 [Example 194, 1-ethyl-7-(1H-indazol-4-yl)-3,4-dihydropyrazino[2,3-b]pyrazin-2(1H)-one] | 1000 to 10000
21 | CCN1C(=O)CNc2ncc(-c3ccc4[nH]ccc4n3)nc21 [Example 154, 1-ethyl-7-(1H-pyrrolo[3,2-b]pyridin-5-yl)-3,4-dihydropyrazino[2,3-b]pyrazin-2(1H)-one] | 1000 to 10000
22 | CO[C@@H]1CC[C@H](N2CC(=O)Nc3ncc(-c4ccc(-c5nnc[nH]5)nc4C)nc32)C1 [Example 39, 4-((1S,3R)-3-methoxycyclopentyl)-6-(2-methyl-6-(4H-1,2,4-triazol-3-yl)pyridin-3-yl)-3,4-dihydropyrazino[2,3-b]pyrazin-2(1H)-one] | 0.005 to 250
23 | Cc1cc(-c2nnc[nH]2)ccc1-c1cnc2c(n1)N1CCCCC1C(=O)N2 (stereo not drawn) [Example 120, 9-(4-(4H-1,2,4-triazol-3-yl)-2-methylphenyl)-6,11,4a-trihydropiperidino[1,2-e]pyrazino[2,3-b]pyrazin-5-one] | 0.005 to 250
24 | CO[C@@H]1CC[C@H](N2C(=O)CNc3ncc(-c4ccc(C(C)(C)O)nc4)nc32)C1 [Example 209, 7-(6-(2-hydroxypropan-2-yl)pyridin-3-yl)-1-((1S,3R)-3-methoxycyclopentyl)-3,4-dihydropyrazino[2,3-b]pyrazin-2(1H)-one] | 0.005 to 250
